Results published in the NIST ThermoML archive (doi:10.1021/je700594n).
Numbers after ± are expanded uncertainties.

Tests used:
[1] = refractive index (Na D-line) (dimensionless); details: 293.15 K; 101.33 kPa; Liquid; Standard Abbe refractometry
[2] = Liquid; for mass density: 293.15 K, 101.33 kPa; for vapor or sublimation pressure: Ebulliometric method (Recirculating still)

refractive index [1] | mass density [2] | vapor or sublimation pressure ([2]; 383.1 K) | vapor or sublimation pressure ([2]; 404.24 K) | vapor or sublimation pressure ([2]; 417.99 K) | vapor or sublimation pressure ([2]; 426.54 K) | vapor or sublimation pressure ([2]; 379.88 K) | vapor or sublimation pressure ([2]; 401.28 K) | vapor or sublimation pressure ([2]; 415.26 K) | vapor or sublimation pressure ([2]; 423.97 K) | vapor or sublimation pressure ([2]; 375.63 K) | vapor or sublimation pressure ([2]; 392.7 K) | vapor or sublimation pressure ([2]; 403.8 K) | vapor or sublimation pressure ([2]; 410.86 K) | Compound
1.5171 ± 0.0007 | 994.1 ± 1.2 kg/m3 | 26.66 ± 0.25 kPa | 53.33 ± 0.3 kPa | 79.99 ± 0.43 kPa | 101.32 ± 0.5 kPa | – | – | – | – | – | – | – | – | COc1ccccc1 [anisole]
1.4055 ± 0.0007 | 717.6 ± 0.7 kg/m3 | – | – | – | – | 26.66 ± 0.25 kPa | 53.33 ± 0.3 kPa | 79.99 ± 0.42 kPa | 101.32 ± 0.49 kPa | – | – | – | – | CCCCCCCCC [nonane]
1.4098 ± 0.0007 | 814.5 ± 1 kg/m3 | – | – | – | – | – | – | – | – | 26.66 ± 0.31 kPa | 53.33 ± 0.37 kPa | 79.99 ± 0.53 kPa | 101.32 ± 0.61 kPa | CCCCCO [pentan-1-ol]
